{"source": "patent US9968620B2", "about": "“Methods of treating lymphoma using thienotriazolodiazepine compounds” (ONCOETHIX GmbH, priority 2014, dated 2018)", "key": {"JAK-2": {"molecular_target": "JAK-2 (Homo sapiens, UniProt O60674)", "sequence (O60674 whole entry, species assumed)": "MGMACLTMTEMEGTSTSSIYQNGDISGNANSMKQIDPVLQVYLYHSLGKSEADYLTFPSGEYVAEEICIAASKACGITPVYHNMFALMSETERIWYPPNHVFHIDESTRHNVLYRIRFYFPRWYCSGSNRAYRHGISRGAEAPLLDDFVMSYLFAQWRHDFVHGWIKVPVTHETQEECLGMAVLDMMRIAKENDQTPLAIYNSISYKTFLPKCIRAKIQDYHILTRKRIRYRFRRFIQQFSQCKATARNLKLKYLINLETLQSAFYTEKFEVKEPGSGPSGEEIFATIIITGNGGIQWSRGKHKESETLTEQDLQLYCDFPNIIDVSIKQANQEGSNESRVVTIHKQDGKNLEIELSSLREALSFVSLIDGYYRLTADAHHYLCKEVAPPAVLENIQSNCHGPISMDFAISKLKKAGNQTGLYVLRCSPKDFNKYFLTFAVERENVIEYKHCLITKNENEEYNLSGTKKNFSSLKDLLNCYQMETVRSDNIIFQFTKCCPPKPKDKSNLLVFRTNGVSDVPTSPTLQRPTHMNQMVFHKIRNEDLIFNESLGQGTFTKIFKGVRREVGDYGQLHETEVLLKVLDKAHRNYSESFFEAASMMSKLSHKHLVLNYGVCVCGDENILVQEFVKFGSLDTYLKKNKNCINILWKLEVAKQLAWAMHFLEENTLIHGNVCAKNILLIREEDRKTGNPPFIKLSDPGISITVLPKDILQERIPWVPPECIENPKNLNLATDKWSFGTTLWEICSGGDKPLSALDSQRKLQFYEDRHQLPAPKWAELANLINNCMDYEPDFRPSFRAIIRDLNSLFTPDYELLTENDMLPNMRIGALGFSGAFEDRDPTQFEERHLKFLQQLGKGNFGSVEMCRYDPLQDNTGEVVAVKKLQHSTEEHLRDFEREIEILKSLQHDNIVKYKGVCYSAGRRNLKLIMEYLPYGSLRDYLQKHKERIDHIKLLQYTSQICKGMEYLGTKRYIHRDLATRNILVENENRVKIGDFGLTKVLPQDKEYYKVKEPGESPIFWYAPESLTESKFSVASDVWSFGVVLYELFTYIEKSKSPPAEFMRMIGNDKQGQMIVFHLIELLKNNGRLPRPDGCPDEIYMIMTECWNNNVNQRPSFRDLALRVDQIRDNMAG", "details": "cited from earlier work"}, "JAK-3": {"molecular_target": "JAK-3 (Homo sapiens, UniProt P52333)", "sequence (P52333 whole entry, species assumed)": "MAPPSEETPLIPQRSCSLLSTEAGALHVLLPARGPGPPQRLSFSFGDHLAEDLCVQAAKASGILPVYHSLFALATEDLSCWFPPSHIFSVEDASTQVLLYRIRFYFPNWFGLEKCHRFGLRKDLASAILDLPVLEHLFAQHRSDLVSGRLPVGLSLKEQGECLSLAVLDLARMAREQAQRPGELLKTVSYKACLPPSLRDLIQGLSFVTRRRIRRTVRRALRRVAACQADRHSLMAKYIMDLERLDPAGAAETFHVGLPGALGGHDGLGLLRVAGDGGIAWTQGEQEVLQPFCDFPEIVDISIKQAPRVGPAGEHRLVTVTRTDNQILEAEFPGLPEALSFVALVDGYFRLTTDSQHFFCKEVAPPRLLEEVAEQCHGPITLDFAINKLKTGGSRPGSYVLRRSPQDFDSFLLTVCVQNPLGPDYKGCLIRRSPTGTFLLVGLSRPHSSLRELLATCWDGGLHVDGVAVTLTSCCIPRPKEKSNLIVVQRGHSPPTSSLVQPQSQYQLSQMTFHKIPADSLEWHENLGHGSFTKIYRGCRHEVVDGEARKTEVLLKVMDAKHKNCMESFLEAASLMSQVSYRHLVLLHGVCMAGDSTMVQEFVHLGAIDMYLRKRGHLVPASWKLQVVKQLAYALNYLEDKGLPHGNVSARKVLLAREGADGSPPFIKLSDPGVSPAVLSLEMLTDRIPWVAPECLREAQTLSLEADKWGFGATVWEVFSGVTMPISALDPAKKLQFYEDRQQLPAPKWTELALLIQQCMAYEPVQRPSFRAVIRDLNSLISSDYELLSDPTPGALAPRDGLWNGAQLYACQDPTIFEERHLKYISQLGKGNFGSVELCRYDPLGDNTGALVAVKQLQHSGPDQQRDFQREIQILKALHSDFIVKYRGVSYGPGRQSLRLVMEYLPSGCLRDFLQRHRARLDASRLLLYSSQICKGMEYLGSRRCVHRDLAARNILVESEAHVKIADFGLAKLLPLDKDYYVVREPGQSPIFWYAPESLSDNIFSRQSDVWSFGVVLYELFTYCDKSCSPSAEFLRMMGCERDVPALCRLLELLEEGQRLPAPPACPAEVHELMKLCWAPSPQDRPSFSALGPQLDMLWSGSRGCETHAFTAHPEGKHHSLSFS", "details": "cited from earlier work"}, "JAK-1": {"molecular_target": "JAK-1 (Homo sapiens, UniProt P23458)", "details": "cited from earlier work"}, "IR kinase": {"molecular_target": "IR kinase (Homo sapiens, UniProt P06213)", "sequence (P06213 28-1382)": "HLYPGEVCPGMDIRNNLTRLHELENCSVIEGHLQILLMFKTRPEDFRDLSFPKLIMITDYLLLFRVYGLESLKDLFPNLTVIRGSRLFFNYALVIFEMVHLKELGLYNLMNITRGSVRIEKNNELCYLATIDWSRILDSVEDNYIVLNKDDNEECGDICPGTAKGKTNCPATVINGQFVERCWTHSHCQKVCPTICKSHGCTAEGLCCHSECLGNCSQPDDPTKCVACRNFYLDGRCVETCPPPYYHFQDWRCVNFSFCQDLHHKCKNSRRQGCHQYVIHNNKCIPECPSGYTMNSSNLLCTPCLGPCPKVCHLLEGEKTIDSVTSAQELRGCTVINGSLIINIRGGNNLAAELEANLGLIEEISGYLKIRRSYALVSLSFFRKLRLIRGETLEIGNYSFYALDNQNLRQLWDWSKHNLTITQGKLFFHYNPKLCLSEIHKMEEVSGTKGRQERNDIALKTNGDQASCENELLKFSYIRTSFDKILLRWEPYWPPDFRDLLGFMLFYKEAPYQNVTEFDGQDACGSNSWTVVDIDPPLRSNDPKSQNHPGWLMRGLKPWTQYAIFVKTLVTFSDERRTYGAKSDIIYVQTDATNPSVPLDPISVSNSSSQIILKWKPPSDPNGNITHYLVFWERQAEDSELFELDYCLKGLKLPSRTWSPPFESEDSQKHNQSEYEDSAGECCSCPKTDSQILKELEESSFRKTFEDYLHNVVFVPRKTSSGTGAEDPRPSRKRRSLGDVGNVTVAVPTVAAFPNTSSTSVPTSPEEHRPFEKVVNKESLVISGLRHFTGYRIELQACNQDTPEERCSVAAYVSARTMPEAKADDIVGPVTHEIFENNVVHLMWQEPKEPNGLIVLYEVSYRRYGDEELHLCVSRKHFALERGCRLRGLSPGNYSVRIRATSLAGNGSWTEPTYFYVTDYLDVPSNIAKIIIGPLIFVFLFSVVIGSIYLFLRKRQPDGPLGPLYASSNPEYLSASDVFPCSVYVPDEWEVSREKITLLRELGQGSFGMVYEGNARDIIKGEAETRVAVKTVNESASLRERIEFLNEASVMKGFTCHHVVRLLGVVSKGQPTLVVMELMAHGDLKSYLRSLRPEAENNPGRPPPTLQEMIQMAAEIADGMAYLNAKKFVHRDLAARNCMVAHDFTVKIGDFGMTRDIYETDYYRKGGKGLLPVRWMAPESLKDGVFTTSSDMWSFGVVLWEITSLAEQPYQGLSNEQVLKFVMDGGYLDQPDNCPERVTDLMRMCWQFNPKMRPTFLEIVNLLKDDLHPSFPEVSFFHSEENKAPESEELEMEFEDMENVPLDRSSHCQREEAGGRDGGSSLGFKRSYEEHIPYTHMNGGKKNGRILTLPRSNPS", "details": "cited from earlier work"}, "EGFR kinase": {"molecular_target": "EGFR kinase (Homo sapiens, UniProt P00533)", "details": "cited from earlier work"}, "SYK": {"molecular_target": "SYK (Homo sapiens, UniProt P43405)", "details": "cited from earlier work"}, "Hck": {"molecular_target": "Hck (Homo sapiens, UniProt P08631)", "sequence (P08631 whole entry, species assumed)": "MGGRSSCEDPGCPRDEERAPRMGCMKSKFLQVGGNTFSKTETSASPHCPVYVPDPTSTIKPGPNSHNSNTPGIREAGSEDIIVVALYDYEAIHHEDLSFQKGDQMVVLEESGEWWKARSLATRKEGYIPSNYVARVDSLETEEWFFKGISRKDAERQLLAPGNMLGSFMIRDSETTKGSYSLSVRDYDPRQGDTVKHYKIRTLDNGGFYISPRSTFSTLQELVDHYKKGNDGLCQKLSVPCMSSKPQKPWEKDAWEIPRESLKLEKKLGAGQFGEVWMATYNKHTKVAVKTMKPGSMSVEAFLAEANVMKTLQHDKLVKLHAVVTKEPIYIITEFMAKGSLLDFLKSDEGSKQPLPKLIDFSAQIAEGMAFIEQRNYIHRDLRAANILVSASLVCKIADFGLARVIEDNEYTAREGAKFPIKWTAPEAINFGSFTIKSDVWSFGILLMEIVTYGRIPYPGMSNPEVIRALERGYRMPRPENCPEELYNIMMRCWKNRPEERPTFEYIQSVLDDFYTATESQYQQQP", "details": "cited from earlier work"}, "HDAC": {"test_system": "HDAC", "details": "cited from earlier work"}, "[1]": {"test_system": "lymphoma cell lines (2-5 cell lines)", "experiment": "Synergy of compound (1-1) with other agents, MTT, Chou-Talalay combination index", "format": "cell-based", "details": "72 h; for combination effect with compound (1-1): Chou-Talalay; for Chou-Talalay combination index (CI), median / Chou-Talalay combination index (CI), range: in combination with compound (1-1)"}, "FKBP12": {"molecular_target": "FKBP12 (Homo sapiens, UniProt P62942)", "sequence (P62942 whole entry, species assumed)": "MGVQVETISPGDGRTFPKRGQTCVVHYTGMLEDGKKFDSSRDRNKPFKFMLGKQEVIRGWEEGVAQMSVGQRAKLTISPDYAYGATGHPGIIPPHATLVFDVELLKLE", "details": "cited from earlier work"}, "PI3K/mTOR": {"test_system": "PI3K/mTOR", "details": "cited from earlier work"}, "[2]": {"test_system": "Akt phosphorylation on T308", "details": "cited from earlier work"}, "[3]": {"test_system": "Akt phosphorylation on S473", "details": "cited from earlier work"}, "PDGFR": {"test_system": "PDGFR", "details": "cited from earlier work"}, "[4]": {"test_system": "pAktS473, pGSK3βS9, pS6, pMAPK, pAktT308", "details": "cited from earlier work"}, "PI3Kγ (p110γ)": {"molecular_target": "PI3Kγ (p110γ) (Homo sapiens, UniProt P48736)", "details": "cited from earlier work"}, "PI3Kβ (p110β)": {"molecular_target": "PI3Kβ (p110β) (Homo sapiens, UniProt P42338)", "details": "cited from earlier work"}}, "note": "Where a name gives a salt, the structure may show the parent alone.", "data": [{"molecule": "C/C(O)=C(\\C#N)C(=O)Nc1cc(Br)ccc1Br", "values": [{"measurement": "IC50", "setting": "JAK-2", "value": "> 300000", "unit": "nM"}, {"measurement": "IC50", "setting": "JAK-3", "value": "> 300000", "unit": "nM"}, {"measurement": "IC50", "setting": "JAK-1", "value": "> 300000", "unit": "nM"}, {"measurement": "IC50", "setting": "IR kinase", "value": "> 300000", "unit": "nM"}, {"measurement": "IC50", "setting": "EGFR kinase", "value": "> 300000", "unit": "nM"}, {"measurement": "IC50", "setting": "SYK", "value": "> 300000", "unit": "nM"}, {"measurement": "IC50", "setting": "Hck", "value": "> 300000", "unit": "nM"}]}, {"molecule": "CC(C)[C@H](C(=O)Nc1ccc(C(=O)NO)cc1)c1ccccc1", "note": "[AR-42]", "values": [{"measurement": "IC50", "setting": "HDAC", "value": 30, "unit": "nM"}]}, {"molecule": "CN(C)c1ccc(C(=O)NCCCCCCC(=O)NO)cc1", "note": "[Compound M344]", "values": [{"measurement": "IC50", "setting": "HDAC", "value": 100, "unit": "nM"}]}, {"molecule": "CO[C@H]1C[C@@H]2CC[C@@H](C)[C@@](O)(O2)C(=O)C(=O)N2CCCC[C@H]2C(=O)O[C@H]([C@H](C)C[C@@H]2CC[C@@H](OCCO)[C@H](OC)C2)CC(=O)[C@H](C)/C=C(\\C)[C@@H](O)[C@@H](OC)C(=O)[C@H](C)C[C@H](C)/C=C/C=C/C=C/1C", "note": "[Everolimus]", "values": [{"measurement": "combination effect with compound (1-1)", "setting": "[1]", "value": "Synergy"}, {"measurement": "Chou-Talalay combination index (CI), median", "setting": "[1]", "value": 0.1}, {"measurement": "Chou-Talalay combination index (CI), range", "setting": "[1]", "value": "0.1-0.2"}, {"measurement": "IC50", "setting": "FKBP12", "value": "1.6 to 2.4", "unit": "nM"}]}, {"molecule": "CCN(CC)Cc1ccc2cc(COC(=O)Nc3ccc(C(=O)NO)cc3)ccc2c1", "note": "[ITF2357]", "values": [{"measurement": "IC50", "setting": "HDAC", "value": "7.5 to 16", "unit": "nM"}]}, {"molecule": "O=C(/C=C/c1ccc(CN(CCO)CCc2c[nH]c3ccccc23)cc1)NO", "note": "[LAQ824]", "values": [{"measurement": "IC50", "setting": "HDAC", "value": 32, "unit": "nM"}]}, {"molecule": "Cn1c(/C=C/C(=O)NO)ccc1/C=C/C(=O)c1cccc(F)c1", "note": "[MC1568]", "values": [{"measurement": "IC50", "setting": "HDAC", "value": 200, "unit": "nM"}]}, {"molecule": "COc1ccc(-c2ccc3ncc4c(c3c2)n(-c2ccc(N3CCNCC3)c(C(F)(F)F)c2)c(=O)n4C)cn1", "note": "[NVP-BGT226]", "values": [{"measurement": "IC50", "setting": "PI3K/mTOR", "value": 1, "unit": "nM"}]}, {"molecule": "COc1ccc(-c2cc3c(C)nc(N)nc3n([C@H]3CC[C@H](OCCO)CC3)c2=O)cn1", "note": "[PF-04691502]", "values": [{"measurement": "IC50", "setting": "[2]", "value": 7.5, "unit": "nM"}, {"measurement": "IC50", "setting": "[3]", "value": 3.8, "unit": "nM"}]}, {"molecule": "Nc1ncnc2c1c(-c1cnc3[nH]ccc3c1)nn2C1CCCC1", "note": "[PP-121, 1-Cyclopentyl-3-(1H-pyrrolo[2,3-b]p-yridin-5-yl)-1H-pyrazolo[3,4-d]pyrimidin-4-amine]", "values": [{"measurement": "IC50", "setting": "PDGFR", "value": 2, "unit": "nM"}]}, {"molecule": "COc1ccc(COc2cc3oc(=O)c4cc(C(C)O)ccc4c3cc2OC)cc1", "note": "(centres unmarked) [Palomid 529]", "values": [{"measurement": "effect on phosphorylation of pAktS473, pGSK3βS9, pS6, pMAPK, pAktT308", "setting": "[4]", "value": "both the mTORCl and mTORC2 complexes, reduces phosphorylation of pAktS473, pGSK3βS9, and pS6 but neither pMAPK nor pAktT308. Phase 1."}]}, {"molecule": "CCCCc1nc2cc(/C=C/C(=O)NO)ccc2n1CCN(CC)CC", "note": "[SB939]", "values": [{"measurement": "IC50", "setting": "HDAC", "value": "40 to 140", "unit": "nM"}]}, {"molecule": "CCCC(CCC)C(=O)O", "note": "[Valproic acid sodium salt]", "values": [{"measurement": "IC50", "setting": "HDAC", "value": 400000, "unit": "nM"}]}, {"molecule": "O=C(CCCCCCC(=O)Nc1ccccc1)NO", "note": "[Vorinostat, suberoylanilide hydroxamic acid]", "values": [{"measurement": "combination effect with compound (1-1)", "setting": "[1]", "value": "Synergy"}, {"measurement": "Chou-Talalay combination index (CI), median", "setting": "[1]", "value": 0.5}, {"measurement": "Chou-Talalay combination index (CI), range", "setting": "[1]", "value": "0.3-0.6"}]}, {"molecule": "CC1=C(/C=C/C(C)=C/C=C/C(C)=C/C(=O)O)C(C)(C)CCC1", "note": "[all-trans retinoic acid]", "values": [{"measurement": "combination effect with compound (1-1)", "setting": "[1]", "value": "Synergy"}]}, {"molecule": "Cn1c(CCCC(=O)O)nc2cc(N(CCCl)CCCl)ccc21", "note": "[bendamustine, 4-[5-[Bis(2-chloroethyl)amino]-1-methylbenzimidazol-2-yl]butanoic acid]", "values": [{"measurement": "combination effect with compound (1-1)", "setting": "[1]", "value": "Additive effects"}]}, {"molecule": "COc1cccc2c1C(=O)c1c(O)c3c(c(O)c1C2=O)C[C@@](O)(C(=O)CO)C[C@@H]3O[C@H]1C[C@H](N)[C@H](O)[C@H](C)O1", "note": "[doxorubicin, (7S,9S)-7-[(2R,4S,5S,6S)-4-amino-5-hydroxy-6-methyloxan-2-yl]oxy-6,9,11-trihydroxy-9-(2-hydroxyacetyl)-4-methoxy-8,10-dihydro-7H-tetracene-5,12-dione]", "values": [{"measurement": "combination effect with compound (1-1)", "setting": "[1]", "value": "Additive effects"}, {"measurement": "Chou-Talalay combination index (CI), median", "setting": "[1]", "value": 0.83}, {"measurement": "Chou-Talalay combination index (CI), range", "setting": "[1]", "value": "0.7-0.96"}]}, {"molecule": "C=CC(=O)N1CCC[C@@H](n2nc(-c3ccc(Oc4ccccc4)cc3)c3c(N)ncnc32)C1", "note": "[ibrutinib]", "values": [{"measurement": "combination effect with compound (1-1)", "setting": "[1]", "value": "Synergy"}, {"measurement": "Chou-Talalay combination index (CI), median", "setting": "[1]; in ABC-DLBCL", "value": 0.04}, {"measurement": "Chou-Talalay combination index (CI), range", "setting": "[1]; in ABC-DLBCL", "value": "0.02-0.1"}]}, {"molecule": "CC[C@H](Nc1ncnc2[nH]cnc12)c1nc2cccc(F)c2c(=O)n1-c1ccccc1", "note": "[idelalisib]", "values": [{"measurement": "combination effect with compound (1-1)", "setting": "[1]", "value": "Synergy"}, {"measurement": "Chou-Talalay combination index (CI), median", "setting": "[1]", "value": 0.5}, {"measurement": "Chou-Talalay combination index (CI), range", "setting": "[1]", "value": "0.04-2.4"}]}, {"molecule": "Nc1cccc2c1CN(C1CCC(=O)NC1=O)C2=O", "note": "(centres unmarked) [lenalidomide]", "values": [{"measurement": "combination effect with compound (1-1)", "setting": "[1]", "value": "Synergy"}, {"measurement": "Chou-Talalay combination index (CI), median", "setting": "[1]", "value": 0.7}]}, {"molecule": "GSK2126458", "values": [{"measurement": "Ki", "setting": "PI3Kγ (p110γ)", "value": 0.024, "unit": "nM"}, {"measurement": "Ki", "setting": "PI3Kβ (p110β)", "value": 0.13, "unit": "nM"}]}, {"molecule": "rituximab: agent combined with compound (1-1) in the synergy test", "values": [{"measurement": "combination effect with compound (1-1)", "setting": "[1]", "value": "Synergy"}, {"measurement": "Chou-Talalay combination index (CI), median", "setting": "[1]", "value": 0.5}, {"measurement": "Chou-Talalay combination index (CI), range", "setting": "[1]", "value": "0.4-0.5"}]}]}
